The record followed here is patent US10510981B2, “Organic light-emitting diode display panel, fabrication method, and electronic apparatus” (Shanghai Tianma AM-OLED Co., Ltd., priority 2017, dated 2019).

Values after ≈ are worked out from the molar mass of the structure shown.

As usually defined, the solubility is the dissolved amount per volume that the medium holds. Higher therefore signals a readily soluble substance.

The data set is described as follows: solubility of the compound adopted in the capping layer. Type of data set: physicochemical. To be noted: thermodynamic from solid, saturated solution, liquid chromatography against a standard curve, solvent not given. From the text: The test methods may include: • (1) measuring the solubility of the compound adopted in the capping layer, where the test method may include: testing samples with different concentrations of the compound by Ultimate3000 liquid chromatographic instrument manufactured by company “waters”, plotting a standard curve, then testing a saturated solution, and calculating the solubility by combining the standard curve; • (2) measuring light extraction efficiency by an UVISEB ellipsometer from HORIBA (China) Trading Co., Ltd.; and • (3) measuring lifetime by a LTS-1004DC life tester with from supplier ENC.
For the molecule `CCCCc1ccc(N(c2ccc(C)c(C)c2)c2ccc(-c3ccc(N(c4ccc(CCCC)cc4)c4ccc(C)c(C)c4)c(C)c3)cc2C)cc1`, the concentration in solution (solubility) was 210 µg/mL (≈ 307 µM). Regarding `Cc1ccc(N(c2ccc(C(C)C)cc2)c2ccc(-c3ccc(N(c4ccc(C(C)C)cc4)c4ccc(C)cc4C)c(C)c3)cc2C)c(C)c1`, the solubility is 205 µg/mL (≈ 312 µM). In turn, `CCCCc1ccc(N(c2ccc(C)cc2C)c2ccc(-c3ccc(N(c4ccc(CCCC)cc4)c4ccc(C)cc4C)c(C)c3)cc2C)cc1` gave a solubility of 312 µg/mL (≈ 455 µM).

For the molecule `Cc1ccc(N(c2ccc(-c3ccc(N(c4ccc(C(C)C)cc4)c4ccc(C)cc4C)cc3)cc2)c2ccc(C(C)C)cc2)c(C)c1`, the solubility worked out at 309 µg/mL (≈ 491 µM).

The molecule `Cc1cc(-c2ccc(N(c3ccc(-c4ccccc4)cc3)c3ccc(-c4ccccc4)cc3)c(C)c2)ccc1N(c1ccc(-c2ccccc2)cc1)c1ccc(-c2ccccc2)cc1` returned a solubility of 211 µg/mL (≈ 257 µM). For `CCc1ccc(-c2ccc(N(c3ccc(-c4ccc(CC)cc4)cc3)c3ccc(-c4ccc(N(c5ccc(-c6ccc(CC)cc6)cc5)c5ccc(-c6ccc(CC)cc6)cc5)c(C)c4)cc3C)cc2)cc1`, the solubility was found to be 210 µg/mL (≈ 225 µM). To `CCCCc1ccc(N(c2ccc(-c3ccc(N(c4ccc(C)c(C)c4)c4ccc(CCCC)c(C)c4)cc3)cc2)c2ccc(C)c(C)c2)cc1C` belongs 340 µg/mL (≈ 496 µM); to `C=Cc1ccc(N(c2ccc(CCCC)cc2)c2ccc(-c3ccc(N(c4ccc(CCCC)cc4)c4ccc(C=C)c(C)c4)c(C)c3)cc2C)cc1C`, 300 µg/mL (≈ 423 µM); to `C#Cc1ccc(N(c2ccc(CCCC)cc2)c2ccc(-c3ccc(N(c4ccc(CCCC)cc4)c4ccc(C#C)c(C)c4)c(C)c3)cc2C)cc1C`, 298 µg/mL (≈ 423 µM). To `CCCCc1ccc(N(c2ccc(-c3ccc(N(c4ccc(CCCC)cc4)C4CCCCC4)c(C)c3)cc2C)C2CCCCC2)cc1` [reference compound] belongs 566 µg/mL (≈ 883 µM); to `Cc1cc(-c2ccc(N(c3ccc(-c4ccc(-c5ccccc5)cc4)cc3)c3ccc(-c4ccc(-c5ccccc5)cc4)cc3)c(C)c2)ccc1N(c1ccc(-c2ccc(-c3ccccc3)cc2)cc1)c1ccc(-c2ccc(-c3ccccc3)cc2)cc1` [reference compound], 430 µg/mL (≈ 382 µM).
